Assay results reported in patent publication US20260000686A1, “CANNABIDIOL COMPOSITIONS FOR THE TREATMENT OF INFLAMMATION” (RevRx, LLC, priority 2019, published 2026).

Tested on: patient (joint, muscle, and arthritic aches and pains)
Assay: Case studies: patient-reported pain relief with topical Cryogel and with previously tried treatments
Format: in vivo, human
[1] = Case #19: bilateral inflammation of the knees post exercise/running
[2] = Case #21: inflammation of the right knee
[3] = Case #7: chronic lower back pain, history of RA
[4] = Case #2: chronic knee pain and muscle soreness
[5] = Case #8: diabetic, peripheral neuropathy pain in feet

## CC(=O)Nc1ccc(O)cc1 [Tylenol]
[1]
  relief from previously tried treatment (patient-reported): Limited relief
[2]
  relief from previously tried treatment (patient-reported): No relief

## Clc1ccc2nsnc2c1NC1=NCCN1 [Tizanidine]
[3]
  relief from previously tried treatment (patient-reported): limit pain relief

## COc1ccc2cc([C@H](C)C(=O)O)ccc2c1 [Naproxen]
[4]
  relief from previously tried treatment (patient-reported): mild pain relief
[3]
  relief from previously tried treatment (patient-reported): limit pain relief
Case #13: quadricep tear or strain, right leg muscle pain
  relief from previously tried treatment (patient-reported): limited relief

## COc1ccc2c3c1O[C@H]1C(=O)CC[C@@]4(O)[C@@H](C2)N(C)CC[C@]314.Cl [OxyContin®]
Case #1: RA, spinal fusion C3-C4, immediately post-op while taking prescription pain management medication, 1 no-pain, 10 most pain
  pain score: 10

## CC(C)Cc1ccc(C(C)C(=O)O)cc1 (stereo not shown) [Ibuprofen]
[4]
  relief from previously tried treatment (patient-reported): mild pain relief
Case #4: chronic knee pain and muscle soreness
  relief from previously tried treatment (patient-reported): minimal relief
[3]
  relief from previously tried treatment (patient-reported): limit pain relief
[5]
  relief from previously tried treatment (patient-reported): limit pain relief
Case #9: quad pain associated with exercise
  relief from previously tried treatment (patient-reported): no relief
Case #10: Tennis Elbow of the right elbow
  relief from previously tried treatment (patient-reported): No relief
Case #11: upper left trapezius muscle pain
  relief from previously tried treatment (patient-reported): No relief
Case #14: right calf muscle pain
  relief from previously tried treatment (patient-reported): limited relief
Case #15: ankle swelling and soreness
  relief from previously tried treatment (patient-reported): limited relief
Case #16: labrum tear post-surgical repair, pain and soreness
  relief from previously tried treatment (patient-reported): limited relief
Case #17: sciatica nerve pain, upper right hip area
  relief from previously tried treatment (patient-reported): limited relief
Case #18: burning, stinging pain and inflammation in upper right elbow
  relief from previously tried treatment (patient-reported): limited relief
[1]
  relief from previously tried treatment (patient-reported): limited relief
[2]
  relief from previously tried treatment (patient-reported): Limited Relief

## COc1ccc2cc([C@H](C)C(=O)[O-])ccc2c1.[Na+] [ALEVER]
Case #5: sore/stiff neck
  relief from previously tried treatment (patient-reported): limited relief

## Cc1ccc(-c2cc(C(F)(F)F)nn2-c2ccc(S(N)(=O)=O)cc2)cc1 [Celebrex]
[1]
  relief from previously tried treatment (patient-reported): Limited Relief

## COc1cccc(C2(O)CCCCC2CN(C)C)c1 (stereo not shown) [Tramadol]
[3]
  relief from previously tried treatment (patient-reported): limit pain relief

## CC(C)C[C@H](CN)CC(=O)O [LYRICA®]
[5]
  relief from previously tried treatment (patient-reported): limit pain relief
